Read-outs that look alike come from different tables or passages of the source.
Columns and labels:
Hs683 = test: MTT colorimetric assay, Hs683; format: cell-based; conditions: Homo sapiens, Hs 683; 72 h treatment; mean ± SEM; sensitive to apoptosis; read-out: IC50 determined by MTT assays, Hs683
From the text: (§1) Cancer cell lines were obtained from either the European Collection of Cell Cultures (ECACC; Salisbury, UK) or the American Type Culture Collection (ATCC; Manassas, VA). The two glioma cell lines were the U373 (ECACC code 08061901) and Hs683 (ATCC HTB-138) cell lines. The carcinoma cell lines were the A549 non-small cell carcinoma cell line (ATCC code CCL 185) and the MCF-7 mammary breast carcinoma cell line (ATCC code HTB-22). The melanoma cell lines were the mouse B16F10 cells (ATCC code CRL-6475) and the human SKMEL-28 cells (ATCC code HTB-72). The ovarian cancer cell line A2780 and its cisplatin-resistant subline A2780cis were obtained from Sigma-Aldrich (St. Louis, MO, USA). Colon cancer HCT116 cells were obtained from ATCC (CCL-247) and the oxaliplatin-resistant subline HCT116/OxR established in the W. Berger lab[59]. The HeLa cell derivative KB-3-1 and the colchicine-selected, highly ABCB1-overexpressing subline KB-C-1 were generously donated by Dr. D. W. Shen, Bethesda, MD. RKOp53wt colon cancer cells together with the RKOp53KO (homozygous knock-out) subline[60] were generously provided by Dr. Vogelstein from John Hopkins University, Baltimore. The correct origin of all cell models was confirmed by STR during performance of the experiments. All cell lines were cultured in RPMI1640 culture medium supplemented with 10% heat-inactivated fetal bovine serum, 2% L-glutamine (0.6 mg/mL), 2% penicillin/streptomycin (200 IU/mL and 200 μg/mL) and 0.1 mg/mL gentamicin.
(§2) The MTT (3-(4,5-dimethylthiazol-2-yl)-2,5-diphenyl tetrazolium bromide) colorimetric assay has been conducted as described previously. Briefly, cells were seeded 24 h before their treatment with each compound for a period of 72 h. The concentrations tested ranged from 10 nM to 100 µM. Each assay was conducted in sextuplicates. The number of independent experiments is mentioned in the legend of the tables.

SKMEL-28 = test: MTT colorimetric assay, SKMEL-28; format: cell-based; conditions: Homo sapiens, SK-MEL-28; 72 h treatment; mean ± SEM; resistant to apoptosis; read-out: IC50 determined by MTT assays, SKMEL-28
From the text: as §1, §2

MCF7 = test: MTT colorimetric assay, MCF7; format: cell-based; conditions: Homo sapiens, 72 h treatment, mean ± SEM, sensitive to apoptosis, read-out: IC50 determined by MTT assays, MCF7
From the text: as §1, §2

A549 = test: MTT colorimetric assay, A549; format: cell-based; conditions: Homo sapiens, 72 h treatment, mean ± SEM of six replicates of one experiment (1: 7, 13: 6 independent experiments), resistant to apoptosis, read-out: IC50 determined by MTT assays, A549
From the text: as §1, §2

[1] = system: A549, SKMEL-28, U373, MCF7, Hs683, B16F10; test: MTT colorimetric assay, mean of the six cell lines; format: cell-based; conditions: for IC50: mean over the six cell lines, 72 h treatment, read-out: IC50 determined by MTT assays, Mean; for activity in the cancer cell panel: MTT, alone
From the text: as §1, §2

U373 = test: MTT colorimetric assay, U373; format: cell-based; conditions: Homo sapiens, U373 MG; 72 h treatment; mean ± SEM; resistant to apoptosis; read-out: IC50 determined by MTT assays, U373
From the text: as §1, §2

B16F10 = test: MTT colorimetric assay, B16F10; format: cell-based; conditions: Mus musculus, B16-F10; 72 h treatment; mean ± SEM; sensitive to apoptosis; read-out: IC50 determined by MTT assays, B16F10
From the text: as §1, §2

[2] = system: 60 cancer cell line panel; conditions: NCI database value; ref NCI database; read-out: LC50 (NCI); cited from earlier work

SMILES	IC50 (Hs683)	IC50 (SKMEL-28)	IC50 (MCF7)	IC50 (A549)	IC50 ([1]; 72 h)	IC50 (U373)	IC50 (B16F10)	activity in the cancer cell panel [1]	IC50 [1]	CC50 [2]
CCCCC=CC1(C)C=C2C(=O)C3(O)OC(=O)C4(CCCC(C)(C)C34)C2(O)CC1 (stereo not drawn) [Compound 9]	1110 ± 140 nM	1150 ± 110 nM	470 ± 30 nM	630 ± 30 nM	880 ± 160 nM	1390 ± 150 nM	520 ± 20 nM	–	–	–
CC1(C=CCCCCBr)C=C2C(=O)C3(O)OC(=O)C4(CCCC(C)(C)C34)C2(O)CC1 (stereo not drawn) [Compound 10]	4350 ± 270 nM	3070 ± 100 nM	5360 ± 580 nM	2960 ± 120 nM	3790 ± 540 nM	5010 ± 180 nM	2000 ± 120 nM	–	–	–
C=CCCCc1ccc2ccc3cccc4ccc1c2c34 [Compound 14, reference compound]	96120 ± 500 nM	> 100000 nM	76000 ± 1550 nM	78800 ± 1260 nM	> 87300 nM	> 100000 nM	73100 ± 1320 nM	inactive	–	–
COC(=O)CCCC=CC1(C)C=C2C(=O)C3(O)OC(=O)C4(CCCC(C)(C)C34)C2(O)CC1 (stereo not drawn) [Compound 6]	3330 ± 100 nM	2740 ± 130 nM	2480 ± 130 nM	2660 ± 40 nM	2640 ± 200 nM	2810 ± 80 nM	1810 ± 140 nM	–	–	–
CC1(C=Cc2ccccc2)C=C2C(=O)C3(O)OC(=O)C4(CCCC(C)(C)C34)C2(O)CC1 (stereo not drawn) [Compound 12]	2720 ± 110 nM	2290 ± 90 nM	3060 ± 220 nM	1610 ± 140 nM	2540 ± 220 nM	3060 ± 70 nM	2520 ± 210 nM	–	–	–
CC1(C=CCCCC(=O)O)C=C2C(=O)C3(O)OC(=O)C4(CCCC(C)(C)C34)C2(O)CC1 (stereo not drawn) [Compound 8]	85300 ± 5250 nM	> 100000 nM	> 100000 nM	> 100000 nM	> 94000 nM	> 100000 nM	81300 ± 2420 nM	inactive	> 94400 nM	–
CC1(C=CCCBr)C=C2C(=O)C3(O)OC(=O)C4(CCCC(C)(C)C34)C2(O)CC1 (stereo not drawn) [Compound 11]	2990 ± 70 nM	2770 ± 180 nM	2890 ± 80 nM	2000 ± 130 nM	2670 ± 150 nM	2810 ± 80 nM	2550 ± 130 nM	–	–	–
COc1ccc(C(=O)/C(Br)=C\C(=O)O)cc1 [Cytembena]	–	–	–	–	–	–	–	–	–	802000 nM
CC1(C=CCCCCc2ccc3ccc4cccc5ccc2c3c45)C=C2C(=O)C3(O)OC(=O)C4(CCCC(C)(C)C34)C2(O)CC1 (stereo not drawn) [Compound 23]	640 ± 20 nM	370 ± 10 nM	420 ± 30 nM	600 ± 20 nM	490 ± 70 nM	660 ± 20 nM	270 ± 10 nM	–	–	–
COc1ccc2c(c1)-c1nn(CCCN(C)C)c3ccc([N+](=O)[O-])c(c13)N2 [Pyrazolo acridine]	–	–	–	–	–	–	–	–	–	23300 nM
CNC(=O)ON(C(C)=O)C(=O)NC [Caracemide]	–	–	–	–	–	–	–	–	–	625000 nM
CC/C(=C(\c1ccccc1)c1ccc(OCCN(C)C)cc1)c1ccccc1 [Tamoxifen]	–	–	–	–	–	–	–	–	–	26000 nM
C=CC1(C)C=C2C(=O)C3(OC(=O)CCCCC(=O)O)OC(=O)C4(CCCC(C)(C)C34)C2(O)CC1 (stereo not drawn) [Compound 5]	1960 ± 180 nM	1610 ± 110 nM	2090 ± 70 nM	1920 ± 70 nM	1700 ± 190 nM	1820 ± 140 nM	780 ± 90 nM	–	–	–
O=c1n(CC2CO2)c(=O)n(CC2CO2)c(=O)n1CC1CO1 (stereo not drawn) [Teroxirone]	–	–	–	–	–	–	–	–	–	387000 nM
COc1cc(NS(C)(=O)=O)ccc1Nc1c2ccccc2nc2ccccc12 [Amsacrine]	–	–	–	–	–	–	–	–	–	25000 nM
CC1(C=CCCc2ccc3ccc4cccc5ccc2c3c45)C=C2C(=O)C3(O)OC(=O)C4(CCCC(C)(C)C34)C2(O)CC1 (stereo not drawn) [Compound 24]	2400 ± 100 nM	1300 ± 140 nM	1200 ± 200 nM	1200 ± 200 nM	1400 ± 340 nM	2200 ± 200 nM	98 ± 40 nM	–	–	–
COC(=O)CCC=CC1(C)C=C2C(=O)C3(O)OC(=O)C4(CCCC(C)(C)C34)C2(O)CC1 (stereo not drawn) [Compound 7]	3630 ± 150 nM	5060 ± 580 nM	6880 ± 260 nM	4500 ± 70 nM	5030 ± 820 nM	7750 ± 310 nM	2330 ± 290 nM	–	–	–
CC(=O)N(C)c1ccc(Nc2cc(C)nc3ccc4[nH]cnc4c23)cc1 [Acodazole]	–	–	–	–	–	–	–	–	–	114000 nM
